Converted amounts (≈) assume the structure as drawn.
How the values were obtained:
Bacillaceae = assay: Minimum inhibitory concentration (MIC), broth dilution; format: cell-based; conditions: 24 h; strain 1722
Method: (§1) Different bacterial species isolated from patients are employed.
(§2) Compounds AB5 and AB6 are dissolved in ethanol (ethyl alcohol 95°, C. Erba) and all the subsequent dilutions performed in distilled water. The chlorhexidine is diluted from the commercial product already dissolved in distilled water.
(§3) The broth dilution is employed to assess MIC values for all strains. Sterile microtiter plates with U bottom with 96 wells are employed. 0.1 Ml of liquid medium (tryptose Roche broth) are put in each well, the plates are kept at -20° and, before use, at room temperature.
(§4) The disinfectant agent is put in the wells of the row 2 at a concentration of 4000 mcg/ml (real 2000 mcg/ml) and then with a 100 µl micro- pipette dilutions are performed from row 2 to row 11.
(§5) The row 1 is the control of the medium and the row 12 is the control for the fertility of the medium itself.
(§6) After having performed the dilutions, 0.01 ml of a 24 hrs bacterial broth culture (previously diluted at 10^-4 for Gram-negative strains and 10-2 for Gram-positive ones) are placed in all wells, from the rows 2 to 12. After the inoculation, the plate is hermetical ly sealed with adhesive transparent band and an hole is done with a needle. The plates are kept at 35° for 24 hours and a macroscopic reading is carried out; in case of non uniform reading, taking place only for chlorhexidine, the cultures from the wells are plated on agar-heart-brain medium (Sclavo) through Dinatech apparatus (head "Inoculum 96") and the reading of the growth is carried out in the following 24 hours.

E.coli = assay: as above; format: cell-based; conditions: Escherichia coli, 24 h
Method: as §1, §2, §3, §4, §5, §6

Enterobacter = assay: as above; format: cell-based; conditions: 24 h, strain 2643
Method: as §1, §2, §3, §4, §5, §6

Indole-positive Proteus [1] = assay: as above; format: cell-based; conditions: 24 h
Method: as §1, §2, §3, §4, §5, §6

Pseudomonas aeruginosa [2] = assay: as above; format: cell-based; conditions: 24 h
Method: as §1, §2, §3, §4, §5, §6

Salmonella sp. [3] = assay: as above; format: cell-based; conditions: 24 h, strain 2482
Method: as §1, §2, §3, §4, §5, §6

Serratia marcescens [4] = assay: as above; format: cell-based; conditions: 24 h, strain 1814
Method: as §1, §2, §3, §4, §5, §6

Staph. aureus [5] = assay: as above; format: cell-based; conditions: Staphylococcus aureus, 24 h; strain 2672
Method: as §1, §2, §3, §4, §5, §6

E. coli = assay: Bactericide activity at different contact times; format: cell-based; parameters: key to Bactericide action (growth / no growth): + = growth; - = no growth; conditions: 100 p.p.m.
Method: as §1, §2
(§7) It is assessed through Dinatech apparatus with "Inoculum 96" head.
(§8) Chemical compounds at established concentra tions are placed in amount of 1 ml in the con tainers, the bacterial inoculum is then added in amount of 0.1 ml (24 hrs culture) and at pre-established times (3,5,10,30,60 and 120 mi nutes), through the head, the mixture compound/ disinfectant agent is transferred in solid medium (agar-heart-brain medium). After incubation at 35°C for 24 hours, the reading is carried out. The tests are repeated in presence of human serum at the concentration of 10%.

Indole-positive Proteus [6] = assay: Bactericide activity at different contact times; format: cell-based; parameters: key to Bactericide action (growth / no growth): + = growth; - = no growth; conditions: 100 p.p.m.
Method: as §1, §2, §7, §8

Serratia marcescens [7] = assay: Bactericide activity at different contact times; format: cell-based; parameters: key to Bactericide action (growth / no growth): + = growth; - = no growth; conditions: 100 p.p.m.
Method: as §1, §2, §7, §8

Pseudomonas aeruginosa [8] = assay: Bactericide activity at different contact times; format: cell-based; parameters: key to Bactericide action (growth / no growth) / Bactericide activity (growth / no growth), serum interference test: + = growth; - = no growth
Method: as §1, §2, §7, §8

B. subtilis = assay: Bactericide activity at different contact times; format: cell-based; parameters: key: + = growth; - = no growth; conditions: 100 p.p.m.
Method: as §1, §2, §7, §8

Salmonella sp. [9] = assay: Bactericide activity at different contact times; format: cell-based; parameters: key: + = growth; - = no growth; conditions: 100 p.p.m.
Method: as §1, §2, §7, §8

Staph. aureus [10] = assay: Bactericide activity at different contact times; format: cell-based; parameters: key: + = growth; - = no growth; conditions: 100 p.p.m.
Method: as §1, §2, §7, §8

[11] = Toxicity, LD50 by intraperitoneal route; conditions: mouse, in vivo, ip, mice

With `NC(=NI)c1ccccc1` [AB6] the MIC (Bacillaceae) was 31.2 µg/mL (≈ 0.127 mM), the MIC (E.coli; strain 2094) was over 1000 µg/mL and the MIC (E.coli; strain 2096) was over 1000 µg/mL. For the same compound, the MIC (E.coli; strain 2117) was over 1000 µg/mL, the MIC (E.coli; strain 2456) was over 1000 µg/mL and the MIC (E.coli; strain 2568) was 2000 µg/mL (≈ 8.13 mM). It also gave an MIC (Enterobacter) of 1000 µg/mL (≈ 4.06 mM), an MIC (Indole-positive Proteus [1]; strain 2075) of over 1000 µg/mL and an MIC (Indole-positive Proteus [1]; strain 2083) of over 1000 µg/mL. It also gave an MIC (Indole-positive Proteus [1]; strain 2105) of over 1000 µg/mL, an MIC (Indole-positive Proteus [1]; strain 2410) of over 2000 µg/mL and an MIC (Indole-positive Proteus [1]; strain 2447) of over 2000 µg/mL. For the same compound, the MIC (Indole-positive Proteus [1]; strain 2674) was 1000 µg/mL (≈ 4.06 mM), the MIC (Pseudomonas aeruginosa [2]; strain 2084) was over 1000 µg/mL and the MIC (Pseudomonas aeruginosa [2]; strain 2458) was over 1000 µg/mL. For the same compound, the MIC (Pseudomonas aeruginosa [2]; strain 2488) was 1000 µg/mL (≈ 4.06 mM), the MIC (Pseudomonas aeruginosa [2]; strain 2508) was 1000 µg/mL (≈ 4.06 mM) and the MIC (Pseudomonas aeruginosa [2]; strain 2509) was 1000 µg/mL (≈ 4.06 mM). For the same compound, the MIC (Pseudomonas aeruginosa [2]; strain 2670) was 1000 µg/mL (≈ 4.06 mM), the MIC (Salmonella sp. [3]) was over 1000 µg/mL and the MIC (Serratia marcescens [4]) was 125 µg/mL (≈ 0.508 mM). For the same compound, the MIC (Staph. aureus [5]) was 1000 µg/mL (≈ 4.06 mM), the “Bactericide action (growth / no growth)” value (E. coli; contact time 3 min) was “+” and the “Bactericide action (growth / no growth)” value (E. coli; contact time 5 min) was “+”. The “Bactericide action (growth / no growth)” value (E. coli; contact time 10 min) was “-”, the “Bactericide action (growth / no growth)” value (E. coli; contact time 30 min) was “-” and the “Bactericide action (growth / no growth)” value (E. coli; contact time 60 min) was “-”. The “Bactericide action (growth / no growth)” value (E. coli; contact time 120 min) was “-”, the “contact time for total bactericide activity” value (Indole-positive Proteus [6]) was at most 3 min and the “Bactericide action (growth / no growth)” value (Indole-positive Proteus [6]; contact time 3 min) was “-”. For the same compound, the “Bactericide action (growth / no growth)” value (Indole-positive Proteus [6]; contact time 5 min) was “-”, the “Bactericide action (growth / no growth)” value (Indole-positive Proteus [6]; contact time 10 min) was “-” and the “Bactericide action (growth / no growth)” value (Indole-positive Proteus [6]; contact time 30 min) was “-”. The “Bactericide action (growth / no growth)” value (Indole-positive Proteus [6]; contact time 60 min) was “-”, the “Bactericide action (growth / no growth)” value (Indole-positive Proteus [6]; contact time 120 min) was “-” and the “longest time in which it is active” value (Serratia marcescens [7]) was 30 min. For the same compound, the “Bactericide action (growth / no growth)” value (Serratia marcescens [7]; contact time 3 min) was “+”, the “Bactericide action (growth / no growth)” value (Serratia marcescens [7]; contact time 5 min) was “+” and the “Bactericide action (growth / no growth)” value (Serratia marcescens [7]; contact time 10 min) was “+”. The “Bactericide action (growth / no growth)” value (Serratia marcescens [7]; contact time 30 min) was “-”, the “Bactericide action (growth / no growth)” value (Serratia marcescens [7]; contact time 60 min) was “-” and the “Bactericide action (growth / no growth)” value (Serratia marcescens [7]; contact time 120 min) was “-”. For the same compound, the “contact time for total bactericide activity” value (Pseudomonas aeruginosa [8]; 100 p.p.m.) was at most 3 min, the “Bactericide action (growth / no growth)” value (Pseudomonas aeruginosa [8]; contact time 3 min, 100 p.p.m.) was “-” and the “Bactericide activity (growth / no growth), serum interference test” value (Pseudomonas aeruginosa [8]; contact time 3 min, with human serum (10%)) was “+”. The “Bactericide activity (growth / no growth), serum interference test” value (Pseudomonas aeruginosa [8]; contact time 3 min, without serum) was “-”, the “Bactericide action (growth / no growth)” value (Pseudomonas aeruginosa [8]; contact time 5 min, 100 p.p.m.) was “-” and the “Bactericide activity (growth / no growth), serum interference test” value (Pseudomonas aeruginosa [8]; contact time 5 min, with human serum (10%)) was “+”. For the same compound, the “Bactericide activity (growth / no growth), serum interference test” value (Pseudomonas aeruginosa [8]; contact time 5 min, without serum) was “-”, the “Bactericide action (growth / no growth)” value (Pseudomonas aeruginosa [8]; contact time 10 min, 100 p.p.m.) was “-” and the “Bactericide activity (growth / no growth), serum interference test” value (Pseudomonas aeruginosa [8]; contact time 10 min, with human serum (10%)) was “+”. The “Bactericide activity (growth / no growth), serum interference test” value (Pseudomonas aeruginosa [8]; contact time 10 min, without serum) was “-”, the “Bactericide action (growth / no growth)” value (Pseudomonas aeruginosa [8]; contact time 30 min, 100 p.p.m.) was “-” and the “Bactericide activity (growth / no growth), serum interference test” value (Pseudomonas aeruginosa [8]; contact time 30 min, with human serum (10%)) was “+”. For the same compound, the “Bactericide activity (growth / no growth), serum interference test” value (Pseudomonas aeruginosa [8]; contact time 30 min, without serum) was “-”, the “Bactericide action (growth / no growth)” value (Pseudomonas aeruginosa [8]; contact time 60 min, 100 p.p.m.) was “-” and the “Bactericide activity (growth / no growth), serum interference test” value (Pseudomonas aeruginosa [8]; contact time 60 min, with human serum (10%)) was “-”. The “Bactericide activity (growth / no growth), serum interference test” value (Pseudomonas aeruginosa [8]; contact time 60 min, without serum) was “-”, the “Bactericide action (growth / no growth)” value (Pseudomonas aeruginosa [8]; contact time 120 min, 100 p.p.m.) was “-” and the “Bactericide activity (growth / no growth), serum interference test” value (Pseudomonas aeruginosa [8]; contact time 120 min, with human serum (10%)) was “-”. The “Bactericide activity (growth / no growth), serum interference test” value (Pseudomonas aeruginosa [8]; contact time 120 min, without serum) was “-”, the “Bactericide action (growth / no growth)” value (B. subtilis; contact time 3 min) was “-” and the “Bactericide action (growth / no growth)” value (B. subtilis; contact time 5 min) was “-”. For the same compound, the “Bactericide action (growth / no growth)” value (B. subtilis; contact time 10 min) was “-”, the “Bactericide action (growth / no growth)” value (B. subtilis; contact time 30 min) was “-” and the “Bactericide action (growth / no growth)” value (B. subtilis; contact time 60 min) was “-”. The “Bactericide action (growth / no growth)” value (B. subtilis; contact time 120 min) was “-”, the “Bactericide action (growth / no growth)” value (Salmonella sp. [9]; contact time 3 min) was “-” and the “Bactericide action (growth / no growth)” value (Salmonella sp. [9]; contact time 5 min) was “-”. For the same compound, the “Bactericide action (growth / no growth)” value (Salmonella sp. [9]; contact time 10 min) was “-”, the “Bactericide action (growth / no growth)” value (Salmonella sp. [9]; contact time 30 min) was “-” and the “Bactericide action (growth / no growth)” value (Salmonella sp. [9]; contact time 60 min) was “-”. For the same compound, the “Bactericide action (growth / no growth)” value (Salmonella sp. [9]; contact time 120 min) was “-”, the “Bactericide action (growth / no growth)” value (Staph. aureus [10]; contact time 3 min) was “-” and the “Bactericide action (growth / no growth)” value (Staph. aureus [10]; contact time 5 min) was “-”. For the same compound, the “Bactericide action (growth / no growth)” value (Staph. aureus [10]; contact time 10 min) was “-”, the “Bactericide action (growth / no growth)” value (Staph. aureus [10]; contact time 30 min) was “-” and the “Bactericide action (growth / no growth)” value (Staph. aureus [10]; contact time 60 min) was “-”. For the same compound, the “Bactericide action (growth / no growth)” value (Staph. aureus [10]; contact time 120 min) was “-” and the LD50 [11] was 85 mg/kg.
